Experimental findings from patent US20250361226A1, “PHARMACEUTICALLY ACCEPTABLE SALT OF BENZO[C]CHROMAN COMPOUND AND P[…] AND USE OF PHARMACEUTICALLY ACCEPTABLE SALT” (REISTONE BIOPHARMA COMPANY LIMITED, priority 2022, published 2025) are described below.

Data set [1] can be described thus: Dynamic vapor sorption (DVS) with XRPD before and after. In kind it is physicochemical. The procedure:
(§1) Test conditions for the instruments used in experiments of the present disclosure: • 1. X-ray Powder Diffraction, XRPD • Instrument type: Malver Panalytical Aeris X-ray powder diffractometer • Ray: monochromatic Cu—Kα ray (λ=1.54188) • Scanning mode: θ/2θ, Scanning range (2θ range): 3.5-50° • Voltage: 40 kV, Electric current: 15 mA • 2. Differential Scanning calorimetry, DSC • Instrument type: TA DSC250 • Purge gas: Nitrogen; Nitrogen purge rate: 50 mL/min • Heating rate: 10° C./min • Temperature range: 25° C.-250° C. • 3. Thermogravimetric Analysis, TGA • Instrument type: TA TGA550 • Purge gas: Nitrogen; Nitrogen purge rate: 20 ml/min • Scanning rate: 10° C./min • Temperature range: 30° C.-350° C. • 4. Dynamic vapor sorption (DVS) • Using SMS Intrinsic PLUS, the detection is performed at 25° C., with humidity change of 50%-0%-90% with a step size of 10%, in which the criteria for judging is that the mass change dM/dT for each gradient is less than 0.002%, TMAX is 360 min, and two cycles are performed. • 5. High performance liquid chromatography (HPLC) described in the stability test of the crystal form A of the present disclosure is determined on Agilent 1260 Infinity II.
During the humidity change of 0%-90% RH, the desorption process of the sample coincides with the adsorption process thereof.

A short description of data set [2]: Stability test (influence factor tests: light, temperature, humidity) by HPLC and XRPD. In kind it is physicochemical. As to the method:
as §1
In the content detection method by the high performance liquid chromatography described in the present disclosure, HPLC conditions are as follows: chromatographic column, Agilent Eclipse Plus C18 4.6 mm*150 mm, 3.5 μm; mobile phase, A-10 mmol/L solution of sodium dihydrogen phosphate (pH 8.0), and B-ACN; flow rate, 1.0 ml/min; wavelength, 210 nm.
In the related substances detection method by the high performance liquid chromatography described in the present disclosure, HPLC conditions are as follows: chromatographic column, Agilent Eclipse Plus C18 4.6 mm*150 mm, 3.5 μm; mobile phase, A-10 mmol/L solution of ammonium acetate, and B-ACN; flow rate, 1.0 ml/min; wavelength, 210 nm.
It is determined whether light, temperature and humidity have an influence on the stability of crystal form A of hydrochloride salt of the compound of formula I. The crystal form A of hydrochloride salt was placed in a stabilizing chamber in the dark and subjected to influence factor tests using a series of temperature and humidity combinations. After being placed for different days under light and various temperature and humidity conditions, the samples were taken out and compared with the initial crystal form A of hydrochloride salt. […] The samples taken out on the last day under light and various temperature and humidity conditions were subjected to XRPD detection, showing that the crystal form A of hydrochloride salt had no change and had good stability.

On to `Cl.N#Cc1ccc2c(c1)COc1cc(C[C@@H](C#N)NC(=O)[C@@H]3CNCCCO3)c(F)cc1-2` [Crystal form A of hydrochloride salt], for which the “weight gain by hygroscopicity” value in data set [1] (DVS, 25° C., 80% RH) is “approximately 1.1%”. In addition, the “crystal form before and after DVS detection (XRPD)” value in data set [1] (humidity change 0%-90% RH) is recorded as “the crystal form did not change”. For the same compound, the Content % is on record as 99.37% in data set [2] (25° C. 92% - one week); 99.31% in data set [2] (25° C. 92% - two weeks); 99.31% in data set [2] (40° C. 75% - one week); 99.32% in data set [2] (40° C. 75% - two weeks); 99.31% in data set [2] (60° C. - one week); 99.33% in data set [2] (60° C. - two weeks). Also, the Content % was 99.54% in data set [2] (initial); 99.44% in data set [2] (light, 0.5 ICH); 99.32% in data set [2] (light, 1 ICH). For the same compound, the Isomers % amounted to 0.63% in data set [2] (25° C. 92% - one week); 0.70% in data set [2] (25° C. 92% - two weeks); 0.69% in data set [2] (40° C. 75% - one week); 0.68% in data set [2] (40° C. 75% - two weeks); 0.70% in data set [2] (60° C. - one week); 0.67% in data set [2] (60° C. - two weeks). Further, the Isomers % was determined as 0.67% in data set [2] (initial); 0.67% in data set [2] (light, 0.5 ICH); 0.67% in data set [2] (light, 1 ICH). In addition, the “increase in isomers of the compound of formula I versus initial (HPLC)” value in data set [2] (different days under light and various temperature and humidity conditions) is on record as “none of them had a significant increase”. For the same compound, the “crystal form by XRPD after influence factor tests” value in data set [2] (samples of the last day under light and various temperature and humidity conditions) was “had no change”.
